Columns and labels:
hESC [1] = settings: independent of feeders or recombinant growth factors; cited from earlier work
hESC [2] = assay: TSA toxicity in hESC; type: cell-based, human
fibroblasts = settings: added to fibroblasts, alone; cited from earlier work
hESC [3] = assay: BMP4-induced differentiation of hESC colonies; type: cell-based, human; settings: hESC line WA07, 100 ng/ml BMP4, 4 days; confirmed by CDX2 immunostaining
Experimental: Pluripotent hESC cultures, line WA07 (a, d, g, i) were compared to hESC that were differentiated in vitro for 4 days in culture with 100 ng/ml BMP4 (b, e, h, j). The squamous epithelial monolayer that was formed is trophectoderm, found in the outer shell of blastocysts and destined to form the placenta. Fixed colonies were stained with the DNA dye, Hoechst 33342 (a, b) and with antibodies to the pluripotency marker OCT4 (d) and the trophectoderm marker, CDX2 (e). Morphological differences that are characteristic of the spreading colonies include an increase in cell (c) and nuclear size (f). The Hoechst image of 4 colonies were analyzed for nuclear size and number of nuclei per colony area (average cell area) and differences between pluripotent and trophectoderm colony morphology were significant at p<0.05 by Students T test. Colony morphology in live cells (g, h), not fixed and immunostained as was performed in (a-f), is provided by the distribution of spatial frequencies in the image (i, j). […] Spatial frequencies are higher in pluripotent than in TE colonies and can be more completely measured using wavelet analysis, a generalized 2D, multiscalar measure of image texture. […] Empirical probability density functions (k-l) for three detail subbands of the line scans in (i) and (j) quantify the concept of spatial frequency. […]

CC(/C=C/C(=O)NO)=C\[C@@H](C)C(=O)c1ccc(N(C)C)cc1 [TSA, trichostatin A]
effect on self-renewal (hESC [1]): activates a self-renewal program in hESC
highest concentration without toxic effects (hESC [2]): 1 nM

FGF2: single growth factor added to media or fibroblasts
effect on expression of endogenous pluripotency markers (fibroblasts): increased expression of endogenous pluripotency markers

B1: BMP4: growth factor bone morphogenic protein, BMP4 (protein, UniProt P12644 293-408, looked up)
Bone morphogenetic protein 4: SPKHHSQRARKKNKNCRRHSLYVDFSDVGWNDWIVAPPGYQAFYCHGDCPFPLADHLNSTNHAIVQTLVNSVNSSIPKACCVPTELSAISMLYLDEYDKVVLKNYQEMVVEGCGCR
differentiation outcome (hESC [3]): form trophectoderm
